Laboratory results from ChEMBL document CHEMBL1201862, “PubChem BioAssay data set” (2004).
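1) Cells in 96-well plates. 2) Compound, 48 h, 5 concentrations. 3) Linear interpolation between surrounding doses. 4) Unreached endpoint = highest concentration. GI50 is the concentration that inhibits growth by half.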 Activity calls are given as the source filed them. No stated cut-off is given here; in the data, active = GI50 up to about 1.1 µM and inactive = higher.

Columns and labels:
Assay in all cases: NCI tumour cell line growth inhibition, 48 h
SNB-75 = system: SNB-75
SK-OV-3 = system: SK-OV-3
TK-10 = system: TK-10
UO-31 = system: UO-31
UACC-62 = system: UACC-62
U-251 = system: U-251
786-0 = system: 786-0
NCI-H23 = system: NCI-H23
HCC 2998 = system: HCC 2998
SF-268 = system: SF-268
NCI-H226 = system: NCI-H226
A549 = system: A549
Malme-3M = system: Malme-3M
HOP-62 = system: HOP-62
HCT-15 = system: HCT-15
RXF 393 = system: RXF 393
M14 = system: M14
HL-60 = system: HL-60
SK-MEL-28 = system: SK-MEL-28
NCI-H522 = system: NCI-H522

Structure (SMILES)	GI50 (SNB-75)	GI50 (SK-OV-3)	GI50 (TK-10)	GI50 (UO-31)	GI50 (UACC-62)	GI50 (U-251)	GI50 (786-0)	GI50 (NCI-H23)	GI50 (HCC 2998)	GI50 (SF-268)	GI50 (NCI-H226)	GI50 (A549)	GI50 (Malme-3M)	GI50 (HOP-62)	GI50 (HCT-15) [µM]	GI50 (RXF 393)	GI50 (M14)	GI50 (HL-60)	GI50 (SK-MEL-28)	GI50 (NCI-H522)
Cc1c(/C=N\NC(=S)NCCNC(=S)N/N=C\c2c(C)n(C)n(-c3ccccc3)c2=O)c(=O)n(-c2ccccc2)n1C	38 µM (inactive)	> 100 µM (inactive)	> 100 µM (inactive)	> 100 µM (inactive)	> 100 µM (inactive)	> 100 µM (inactive)	> 100 µM (inactive)	> 100 µM (inactive)	> 100 µM (inactive)	> 100 µM (inactive)	> 100 µM (inactive)	> 100 µM (inactive)	> 100 µM (inactive)	> 100 µM (inactive)	> 100	> 100 µM (inactive)	> 100 µM (inactive)	–	–	–
CCNC(=S)N/N=C1\C(=O)Nc2ccc([N+](=O)[O-])cc21	–	39.4 µM (inactive)	18.2 µM (inactive)	25.8 µM (inactive)	99.1 µM (inactive)	29.5 µM (inactive)	19.1 µM (inactive)	> 100 µM (inactive)	24.9 µM (inactive)	44.7 µM (inactive)	97.7 µM (inactive)	35.7 µM (inactive)	57.8 µM (inactive)	27.7 µM (inactive)	49.3	26 µM (inactive)	46.7 µM (inactive)	92.9 µM (inactive)	48 µM (inactive)	–
COC1/C(=C\c2ccccc2I)c2ccccc2N1C(C)=O (stereo unspecified)	14.3 µM (inactive)	–	–	2.48 µM (inactive)	13 µM (inactive)	18.6 µM (inactive)	18.1 µM (inactive)	15.7 µM (inactive)	16 µM (inactive)	–	–	16 µM (inactive)	–	17.2 µM (inactive)	14.2	5.69 µM (inactive)	–	3.46 µM (inactive)	17.3 µM (inactive)	–
C=CCC1(C(=O)OC)CCC/C(=N\O)C1 (stereo unspecified)	> 10 µM (inactive)	> 10 µM (inactive)	> 10 µM (inactive)	–	> 10 µM (inactive)	> 10 µM (inactive)	> 10 µM (inactive)	> 10 µM (inactive)	> 10 µM (inactive)	> 10 µM (inactive)	–	> 10 µM (inactive)	> 10 µM (inactive)	> 10 µM (inactive)	> 10	–	> 10 µM (inactive)	> 10 µM (inactive)	> 10 µM (inactive)	> 10 µM (inactive)
C#C[C@]1(O)CC[C@H]2[C@@H]3CCC4=C/C(=N/NC(=O)c5cccc6cc7ccccc7nc56)CC[C@@H]4[C@H]3CC[C@@]21CC	> 100 µM (inactive)	> 100 µM (inactive)	–	–	95.5 µM (inactive)	> 100 µM (inactive)	34.4 µM (inactive)	> 100 µM (inactive)	> 100 µM (inactive)	70 µM (inactive)	> 100 µM (inactive)	47 µM (inactive)	–	67.9 µM (inactive)	56	> 100 µM (inactive)	84.7 µM (inactive)	48 µM (inactive)	> 100 µM (inactive)	–
COC(=O)C(COC(C)=O)NC(=O)/C=C/c1ccc(O)c(OC(C)=O)c1 (stereo unspecified)	> 100 µM (inactive)	> 100 µM (inactive)	77.4 µM (inactive)	49.2 µM (inactive)	> 100 µM (inactive)	37 µM (inactive)	55.8 µM (inactive)	> 100 µM (inactive)	63.4 µM (inactive)	> 100 µM (inactive)	> 100 µM (inactive)	> 100 µM (inactive)	> 100 µM (inactive)	49.3 µM (inactive)	8.97	–	> 100 µM (inactive)	–	66.2 µM (inactive)	11.4 µM (inactive)
CCc1ccccc1NC(=O)CCc1n[nH]c(=S)o1	> 100 µM (inactive)	> 100 µM (inactive)	> 100 µM (inactive)	> 100 µM (inactive)	> 100 µM (inactive)	> 100 µM (inactive)	> 100 µM (inactive)	> 100 µM (inactive)	> 100 µM (inactive)	> 100 µM (inactive)	> 100 µM (inactive)	> 100 µM (inactive)	> 100 µM (inactive)	> 100 µM (inactive)	19.3	–	> 100 µM (inactive)	> 100 µM (inactive)	> 100 µM (inactive)	–
O=C(CC(=O)n1nc(-c2ccccc2)c(/N=N/c2ccc(Cl)cc2)c1-c1ccccc1)Nc1ccc(Cl)cc1	> 50.5 µM (inactive)	> 100 µM (inactive)	> 61.1 µM (inactive)	> 100 µM (inactive)	> 100 µM (inactive)	> 100 µM (inactive)	> 43.3 µM (inactive)	> 100 µM (inactive)	> 100 µM (inactive)	> 88.7 µM (inactive)	> 100 µM (inactive)	> 43.9 µM (inactive)	> 100 µM (inactive)	> 100 µM (inactive)	> 41.7	–	> 100 µM (inactive)	> 100 µM (inactive)	> 100 µM (inactive)	> 100 µM (inactive)
